Assays:
Experiment in all cases: KINOMEscan
Format in all cases: binding
Conditions in all cases: read-out: % control activity remaining
[1] = target: T1, SGK (Homo sapiens, UniProt O00141)
T1 construct: purchased Eurofins DiscoverX KINOMEscan
T1 sequence (O00141 1-431): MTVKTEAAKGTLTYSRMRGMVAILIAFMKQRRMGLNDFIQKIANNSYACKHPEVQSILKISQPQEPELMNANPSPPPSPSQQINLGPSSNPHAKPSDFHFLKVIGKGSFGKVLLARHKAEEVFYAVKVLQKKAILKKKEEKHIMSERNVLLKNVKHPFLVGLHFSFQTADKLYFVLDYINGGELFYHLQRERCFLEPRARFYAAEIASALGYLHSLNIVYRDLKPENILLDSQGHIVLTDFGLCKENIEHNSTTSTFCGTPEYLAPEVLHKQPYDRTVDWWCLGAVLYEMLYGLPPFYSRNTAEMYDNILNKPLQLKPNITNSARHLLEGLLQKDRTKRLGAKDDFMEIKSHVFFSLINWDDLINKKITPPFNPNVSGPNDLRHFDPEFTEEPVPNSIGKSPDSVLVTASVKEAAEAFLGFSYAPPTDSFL

[2] = target: T2, ERK1 (Homo sapiens, UniProt P27361)
T2 construct: purchased Eurofins DiscoverX KINOMEscan

[3] = target: T3, MEK3 (Homo sapiens, UniProt P46734)
T3 construct: purchased Eurofins DiscoverX KINOMEscan
T3 sequence (P46734 1-347): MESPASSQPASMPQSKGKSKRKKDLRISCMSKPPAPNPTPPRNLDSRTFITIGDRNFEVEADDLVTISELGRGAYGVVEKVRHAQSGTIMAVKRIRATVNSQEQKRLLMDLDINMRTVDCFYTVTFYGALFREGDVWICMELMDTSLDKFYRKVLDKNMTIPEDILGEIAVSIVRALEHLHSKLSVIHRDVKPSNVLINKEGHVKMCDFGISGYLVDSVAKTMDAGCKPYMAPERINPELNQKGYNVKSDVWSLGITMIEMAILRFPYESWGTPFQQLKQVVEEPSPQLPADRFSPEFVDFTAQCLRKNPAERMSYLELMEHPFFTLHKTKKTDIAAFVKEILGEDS

[4] = target: T4, DAPK1 (Homo sapiens, UniProt P53355)
T4 construct: purchased Eurofins DiscoverX KINOMEscan

[5] = target: T5, EPHA8 (Homo sapiens, UniProt P29322)
T5 construct: purchased Eurofins DiscoverX KINOMEscan
T5 sequence (P29322 28-1005): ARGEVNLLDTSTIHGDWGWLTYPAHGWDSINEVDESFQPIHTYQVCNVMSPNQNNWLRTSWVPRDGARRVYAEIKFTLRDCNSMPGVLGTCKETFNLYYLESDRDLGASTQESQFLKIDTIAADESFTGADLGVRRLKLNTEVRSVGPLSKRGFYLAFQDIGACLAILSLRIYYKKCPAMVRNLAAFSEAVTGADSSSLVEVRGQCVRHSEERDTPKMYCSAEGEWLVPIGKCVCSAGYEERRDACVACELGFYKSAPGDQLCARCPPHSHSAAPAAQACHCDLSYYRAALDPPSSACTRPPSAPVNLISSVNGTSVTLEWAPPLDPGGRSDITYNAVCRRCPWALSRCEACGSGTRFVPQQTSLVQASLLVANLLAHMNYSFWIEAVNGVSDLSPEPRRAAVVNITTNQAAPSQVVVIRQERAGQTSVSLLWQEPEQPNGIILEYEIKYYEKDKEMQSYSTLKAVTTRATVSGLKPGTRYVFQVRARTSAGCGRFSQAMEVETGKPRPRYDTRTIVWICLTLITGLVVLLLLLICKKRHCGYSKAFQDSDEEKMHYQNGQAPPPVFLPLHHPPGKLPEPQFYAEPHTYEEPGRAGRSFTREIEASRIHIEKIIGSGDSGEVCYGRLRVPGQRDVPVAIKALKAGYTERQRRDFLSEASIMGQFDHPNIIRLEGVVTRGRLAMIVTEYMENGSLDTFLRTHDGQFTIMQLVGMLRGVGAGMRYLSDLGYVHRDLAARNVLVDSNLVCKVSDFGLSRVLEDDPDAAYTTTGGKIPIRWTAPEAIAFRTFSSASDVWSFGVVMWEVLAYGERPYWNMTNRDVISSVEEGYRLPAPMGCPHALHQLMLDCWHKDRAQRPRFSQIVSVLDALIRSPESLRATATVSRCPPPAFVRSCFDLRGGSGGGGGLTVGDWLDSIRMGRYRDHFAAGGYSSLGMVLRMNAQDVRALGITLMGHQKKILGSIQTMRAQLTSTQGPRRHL

T4 sequence (P53355 whole entry): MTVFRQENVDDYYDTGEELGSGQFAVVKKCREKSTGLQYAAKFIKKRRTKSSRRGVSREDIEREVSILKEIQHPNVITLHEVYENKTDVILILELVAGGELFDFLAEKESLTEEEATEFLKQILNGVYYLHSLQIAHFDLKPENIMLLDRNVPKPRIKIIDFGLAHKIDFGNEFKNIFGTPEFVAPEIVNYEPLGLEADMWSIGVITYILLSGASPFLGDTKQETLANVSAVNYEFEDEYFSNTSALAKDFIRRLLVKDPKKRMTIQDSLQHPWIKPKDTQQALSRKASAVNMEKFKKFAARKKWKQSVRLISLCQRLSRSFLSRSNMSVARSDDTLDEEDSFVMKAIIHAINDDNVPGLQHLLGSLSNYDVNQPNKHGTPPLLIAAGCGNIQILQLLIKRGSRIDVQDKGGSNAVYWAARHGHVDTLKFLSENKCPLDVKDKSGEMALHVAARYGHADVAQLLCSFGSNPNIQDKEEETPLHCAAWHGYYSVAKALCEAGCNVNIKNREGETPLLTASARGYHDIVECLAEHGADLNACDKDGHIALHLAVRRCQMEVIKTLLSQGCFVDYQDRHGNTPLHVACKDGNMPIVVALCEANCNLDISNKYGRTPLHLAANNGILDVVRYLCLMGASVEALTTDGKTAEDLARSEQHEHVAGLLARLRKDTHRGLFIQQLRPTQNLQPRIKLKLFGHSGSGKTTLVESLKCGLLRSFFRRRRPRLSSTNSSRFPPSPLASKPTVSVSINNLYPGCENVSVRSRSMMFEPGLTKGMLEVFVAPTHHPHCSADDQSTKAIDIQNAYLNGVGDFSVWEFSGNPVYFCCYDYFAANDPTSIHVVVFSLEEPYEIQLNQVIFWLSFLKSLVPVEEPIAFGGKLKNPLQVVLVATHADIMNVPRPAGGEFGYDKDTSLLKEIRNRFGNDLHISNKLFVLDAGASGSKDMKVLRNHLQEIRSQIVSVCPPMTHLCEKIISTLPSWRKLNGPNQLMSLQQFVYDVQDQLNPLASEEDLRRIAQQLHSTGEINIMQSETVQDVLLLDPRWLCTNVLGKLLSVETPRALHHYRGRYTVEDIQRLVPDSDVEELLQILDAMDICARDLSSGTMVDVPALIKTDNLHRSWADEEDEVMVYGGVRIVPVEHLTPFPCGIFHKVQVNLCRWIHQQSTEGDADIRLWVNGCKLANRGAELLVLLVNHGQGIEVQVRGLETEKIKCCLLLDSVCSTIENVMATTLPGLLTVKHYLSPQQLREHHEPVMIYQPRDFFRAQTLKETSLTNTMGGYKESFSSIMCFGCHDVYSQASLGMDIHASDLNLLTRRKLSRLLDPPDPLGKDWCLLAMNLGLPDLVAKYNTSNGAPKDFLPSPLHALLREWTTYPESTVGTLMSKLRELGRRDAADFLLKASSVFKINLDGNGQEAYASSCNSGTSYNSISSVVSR
T2 sequence (P27361 whole entry): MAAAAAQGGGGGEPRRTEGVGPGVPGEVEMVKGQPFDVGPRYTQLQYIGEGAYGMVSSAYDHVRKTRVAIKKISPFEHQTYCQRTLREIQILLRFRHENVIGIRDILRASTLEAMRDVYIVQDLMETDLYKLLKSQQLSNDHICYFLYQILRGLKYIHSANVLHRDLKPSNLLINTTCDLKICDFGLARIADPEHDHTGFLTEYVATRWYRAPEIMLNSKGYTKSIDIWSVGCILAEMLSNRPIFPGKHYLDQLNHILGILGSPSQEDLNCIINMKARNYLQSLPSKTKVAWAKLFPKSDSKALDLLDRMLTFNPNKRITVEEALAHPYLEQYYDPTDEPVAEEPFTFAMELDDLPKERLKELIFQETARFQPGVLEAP

SMILES	remaining binding at 1 µM [1]	remaining binding at 1 µM [2]	remaining binding at 1 µM [3]	remaining binding at 1 µM [4]	remaining binding at 1 µM [5]
Clc1cc(NCC2CC2)c2ncc(-c3ccc4[nH]ncc4c3)n2n1 [compound 2, 6-Chloro-N-(cyclopropylmethyl)-3-(1H-indazol-5-yl)imidazo[1,2-b]pyridazin-8-amine]	91%	95%	87%	98%	90%
O=C(CN1CCOCC1)N[C@H]1CC[C@H](Nc2cc(Cl)nn3c(-c4ccc5[nH]ncc5c4)cnc23)CC1 [compound 26]	94%	100%	100%	66%	90%
CN1CCC(CNc2cc(Cl)nn3c(-c4cc5nc(Nc6ccccc6)[nH]c5cc4F)cnc23)CC1 [compound 31, 6-Chloro-3-(6-fluoro-2-(phenylamino)-1H-benzo[d]imidazol-5-yl)-N-((1-methylpiperidin-4-yl)methyl)imidazo[1,2-b]pyridazin-8-amine]	76%	92%	88%	99%	92%

From publication PMC6437697 (Journal of Medicinal Chemistry, 2019)
